Data published in patent publication US10464893B2, “Derivatives of pyrrole-2,5-diones having a fungicidal activity, their agronomical compositions and use thereof” (ISAGRO S.p.A., priority 2016, dated 2019).

How the values were obtained:
[1] = system: Plasmopara viticola; assay: Preventive activity (7 days) against Plasmopara viticola on vines; assay type: in vivo; settings: leaf spray on vine plants, inoculation 7 days after treatment, reduction of diseased leaf area vs non-treated (100=total effectiveness)
Method: Determination of the Preventive Activity (7 Days) of Compounds Having Formula (I) Against Plasmopara viticola on Vines
Leaves of vine plants, grown in pots, in a conditioned environment (20±1° C., 70% of R.H.), were treated by spraying both sides with the products under examination.
7 days after the treatment, the plants were inoculated with an aqueous suspension of spores of Plasmopara viticola (200,000 spores/cc) by spraying on both sides of the leaves with a compressed air gun.
(§1) After remaining 24 hours in a humidity saturated environment, at 21° C., the plants were transferred for the incubation period (7 days) to a conditioned environment at 70% R.H. and at 24° C.
(§2) After this period, the external symptoms of the pathogen appeared and it was consequently possible to proceed with a visual evaluation of the intensity of the infection.
(§3) The fungicidal activity is expressed as a reduction percentage, with respect to non-treated seedlings, in the area of the leaves affected by the disease (100=total effectiveness, 0=zero effectiveness).
Table 2 indicates the results obtained for the compounds tested, compared with the reference product Mancozeb (polymeric complex of manganese ethylenebisdithiocarbamate with zinc salt).

[2] = system: Uromyces appendiculatus; assay: Preventive activity (7 days) against Uromyces appendiculatus on beans; assay type: in vivo; settings: leaf spray on bean plants, inoculation 7 days after treatment, reduction of diseased leaf area vs non-treated (100=total effectiveness)
Method: Determination of the Preventive Activity (7 Days) of Compounds Having Formula (I) Against Uromyces appendiculatus on Beans
Leaves of bean plants, grown in pots, in a conditioned environment (20±1° C., 70% of R.H.), were treated by spraying both sides with the products under examination.
7 days after the treatment, the plants were inoculated with an aqueous suspension of spores of Uromyces appendiculatus (200,000 spores/cc) by spraying on both sides of the leaves with a compressed air gun.
as §1, §2, §3
Table 3 indicates the results obtained for the compounds tested, compared with the reference product Domark® (Tetraconazole).

Row | Compound | Effectiveness (%) ([1]; dose 125 ppm) | Effectiveness (%) ([1]; dose 500 ppm) | Effectiveness (%) ([2]; dose 125 ppm) | Effectiveness (%) ([2]; dose 500 ppm)
1 | polymeric complex of manganese ethylenebisdithiocarbamate with zinc salt [Mancozeb, reference compound] | 78 | 96 | – | –
2 | CCOC(=O)NN1C(=O)C(c2ccccc2Br)=C(c2cccc3ccccc23)C1=O [Compound 13, ethyl 3-(2-bromophenyl)-4-(1-naphthyl)-2,5-dione-1H-pyrrolylcarbamate] | 89 | 97 | 81 | 92
3 | t-butyl 3-phenyl-4-(1-naphthyl)-2,5-dione-1H-pyrrolylcarbamate [Compound 8] | – | – | 93 | 95
4 | CS(=O)(=O)ON1C(=O)C(c2ccccc2Br)=C(c2cccc3ccccc23)C1=O [Compound 12, 3-(2-bromophenyl)-1-(methane-sulfonyloxy)-4-(1-naphthyl)-1H-pyrrole-2,5-dione] | 91 | 93 | 83 | 98
5 | CS(=O)(=O)N1C(=O)C(c2ccccc2)=C(c2cccc3ccccc23)C1=O [Compound 3, 1-methanesulfonyl-3-phenyl-4-(1-naphthyl)-1H-pyrrol-2,5-dione] | 86 | 99 | 84 | 93
6 | CC(=O)ON1C(=O)C(c2ccccc2Br)=C(c2cccc3ccccc23)C1=O [Compound 11, 1-acetyloxy-3-(2-bromophenyl)-4-(1-naphthyl)-1H-pyrrole-2,5-dione] | 82 | 92 | 80 | 95
